Data from patent US12398120B2, “Substituted hydantoinamides as ADAMTS7 antagonists” (BAYER AKTIENGESELLSCHAFT, priority 2019, dated 2025).
pIC50: −log10 of the molar value.

The compounds below were run against ADAMTS4 (Homo sapiens (Human), UniProt O75173) (assay: Selectivity assay for ADAMTS-7 modulators: ADAMTS4 (FRET substrate)). Details: ADAMTS4 (R&D 4307-AD) 50 nM, substrate Dabcyl-EEVKAKVQPY-Glu(Edans)-NH2 1 μM, 120 min, 32° C.
Sequence of ADAMTS4 (O75173 213-685): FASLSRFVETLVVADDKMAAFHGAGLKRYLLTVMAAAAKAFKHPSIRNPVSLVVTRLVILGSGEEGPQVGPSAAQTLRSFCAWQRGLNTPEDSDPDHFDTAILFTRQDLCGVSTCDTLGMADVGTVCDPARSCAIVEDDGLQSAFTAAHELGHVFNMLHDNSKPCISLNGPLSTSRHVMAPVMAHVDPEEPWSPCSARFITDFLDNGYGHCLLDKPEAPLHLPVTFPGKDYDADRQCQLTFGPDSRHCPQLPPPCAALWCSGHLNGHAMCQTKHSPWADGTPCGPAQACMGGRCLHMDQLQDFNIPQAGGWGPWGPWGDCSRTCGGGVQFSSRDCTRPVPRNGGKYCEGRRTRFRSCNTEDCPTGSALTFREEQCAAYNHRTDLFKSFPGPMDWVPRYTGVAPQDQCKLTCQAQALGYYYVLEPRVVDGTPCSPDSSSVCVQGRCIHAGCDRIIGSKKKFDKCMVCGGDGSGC
Assay type: biochemical
Method in brief: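 Human ADAMTS4 with compound in DMSO, or DMSO control; reaction started by adding FRET substrate in reaction buffer. Fluorescence increase measured at substrate-specific wavelengths. IC50 derived from % inhibition of enzyme activity versus compound concentration.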
Work on `Cc1nscc1C1(CNC(=O)c2ccccc2-c2ccc(C(F)(F)F)nc2)NC(=O)NC1=O` (stereo not drawn) [Example 64, Ent-N-{[4-(3-Methyl-1,2-Thiazol-4-Yl)-2,5-Dioxoimidazolidin-4-Yl]Methyl}-2-[6-(Trifluoromethyl)Pyridin-3-Yl]Benzamide] yielded a pIC50 of 4.92. Work on `Cc1scnc1C1(CNC(=O)c2ccccc2-c2ccc(Cl)cc2)NC(=O)NC1=O` (single isomer, unassigned; ent-4) [Example 172, Ent-4′-Chloro-N-{[4-(5-Methyl-1,3-Thiazol-4-Yl)-2,5-Dioxoimidazolidin-4-Yl]Methyl}[Biphenyl]-2-Carboxamide] yielded a pIC50 of 5.51. With `Cc1scnc1C1(CNC(=O)c2cc(F)ccc2-c2ccc(C(F)(F)F)cc2)NC(=O)NC1=O` (single isomer, unassigned; ent-4) [Example 166, Ent-4-Fluoro-N-{[4-(5-Methyl-1,3-Thiazol-4-Yl)-2,5-Dioxoimidazolidin-4-Yl]Methyl}-4′-(Trifluoromethyl)[Biphenyl]-2-Carboxamide] the pIC50 was 5.49. Work on `Cn1nccc1C1(CNC(=O)c2ccc(F)cc2-c2ccc(C(F)(F)F)nc2)NC(=O)NC1=O` (single isomer, unassigned; ent-4) [Example 291, Ent-4-Fluoro-N-{[4-(1-Methyl-1H-Pyrazol-5-Yl)-2,5-Dioxoimidazolidin-4-Yl]Methyl}-2-[6-(Trifluoromethyl)Pyridin-3-Yl]Benzamide] yielded a pIC50 of 4.85. `O=C1NC(=O)C(CNC(=O)c2ccccc2-c2ccc(C(F)(F)F)nc2)(c2ccnn2C2CC2)N1` (racemic) [Example 40, Rac-N-{[4-(1-Cyclopropyl-1H-Pyrazol-5-Yl)-2,5-Dioxoimidazolidin-4-Yl]Methyl}-2-[6-(Trifluoromethyl)Pyridin-3-Yl]Benzamide] showed a pIC50 of 4.68. `Cc1nc(C)c(C2(CNC(=O)c3ccccc3-c3ccc(C(F)(F)F)cc3)NC(=O)NC2=O)s1` (stereo not drawn) [Example 47, Ent-N-{[4-(2,4-Dimethyl-1,3-Thiazol-5-Yl)-2,5-Dioxoimidazolidin-4-Yl]Methyl}-4′-(Trifluoromethyl)[Biphenyl]-2-Carboxamide] was tested, and the pIC50 was 5.38. `Cc1ccc(C(=O)NC[C@@]2(C3CC3)NC(=O)NC2=O)c(-c2ccc(C3CC3(F)F)cc2)c1` (single isomer, unassigned) [Example 138] showed a pIC50 of 5.31.
